Assay results from patent US12459899B2, “Isoquinolinone derivatives, method for preparing the same, and pharmaceutical composition for preventing or treating poly(ADP-ribose) polymerase-1-related diseases, comprising the same as active ingredient” (DIGMBIO. INC., priority 2019, dated 2025).

target: PARP-1 (poly[ADP-ribose] polymerase 1) enzyme (Homo sapiens (Human), UniProt P09874); assay: PARP-1 (poly[ADP-ribose] polymerase 1) enzyme inhibitory ability, Trevigen assay kit; type: biochemical; details: 1 nM compound; read-out: PAR P-1 Inhibitory ability at 1 nM
Outline: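 Human PARP-1 activity was measured with a Trevigen assay kit in histone-coated 96-well plates rehydrated with 50 μL of 1×PARP buffer for 30 minutes. Enzyme (0.5 unit/well) and compound were preincubated 10 minutes at room temperature, then 25 μL of 1×PARP cocktail with biotinylated NAD and activated DNA was added for 1 hour.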

Sequence of PARP-1 (poly[ADP-ribose] polymerase 1) enzyme (P09874 whole entry): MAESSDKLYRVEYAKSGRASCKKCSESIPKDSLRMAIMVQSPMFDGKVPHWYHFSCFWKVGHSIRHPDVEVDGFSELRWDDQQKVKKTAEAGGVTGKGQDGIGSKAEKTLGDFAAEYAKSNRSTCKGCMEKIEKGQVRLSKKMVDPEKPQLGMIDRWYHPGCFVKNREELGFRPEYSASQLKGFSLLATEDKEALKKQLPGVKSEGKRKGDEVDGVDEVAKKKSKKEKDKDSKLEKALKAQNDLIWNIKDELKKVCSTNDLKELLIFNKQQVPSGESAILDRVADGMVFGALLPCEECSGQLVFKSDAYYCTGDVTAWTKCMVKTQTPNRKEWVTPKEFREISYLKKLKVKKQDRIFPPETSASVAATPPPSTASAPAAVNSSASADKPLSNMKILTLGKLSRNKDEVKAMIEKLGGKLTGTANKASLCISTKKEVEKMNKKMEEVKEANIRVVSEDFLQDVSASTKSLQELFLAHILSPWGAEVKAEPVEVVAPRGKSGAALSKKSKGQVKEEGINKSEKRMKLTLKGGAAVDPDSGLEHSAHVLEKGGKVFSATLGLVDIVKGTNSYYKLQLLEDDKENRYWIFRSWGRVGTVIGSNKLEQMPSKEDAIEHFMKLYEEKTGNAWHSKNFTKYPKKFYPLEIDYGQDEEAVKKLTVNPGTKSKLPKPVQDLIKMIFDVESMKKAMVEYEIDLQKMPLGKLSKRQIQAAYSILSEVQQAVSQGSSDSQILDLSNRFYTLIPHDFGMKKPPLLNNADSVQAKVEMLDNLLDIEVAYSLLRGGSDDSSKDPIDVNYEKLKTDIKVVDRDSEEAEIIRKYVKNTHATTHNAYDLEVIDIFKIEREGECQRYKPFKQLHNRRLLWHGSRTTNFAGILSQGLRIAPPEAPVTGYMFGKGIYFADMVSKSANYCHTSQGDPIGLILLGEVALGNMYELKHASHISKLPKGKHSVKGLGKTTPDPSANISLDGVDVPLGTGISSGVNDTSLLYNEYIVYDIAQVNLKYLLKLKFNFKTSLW

Question: With `Cc1ccc(F)c2c(=O)[nH]c(CCCN3CCN(c4ccc(C#N)cc4)CC3)cc12` [Example 23, 4-(4-(3-(8-fluoro-5-methyl-1-oxo-1,2-dihydroisoquinolin-3-yl)propyl)piperazin-1-yl)benzonitrile] as the compound, how does the inhibition at 0.001 µM read?
Answer: < 50%

Question: With `Cc1cc(F)cc2c(=O)[nH]c(CCC(=O)N3CCC(Nc4ccc(C#N)cc4)CC3)cc12` [Example 260, 4-((1-(3-(7-fluoro-5-methyl-1-oxo-1,2-dihydroisoquinolin-3-yl)propanoyl)piperidin-4-yl)amino)benzonitrile] as the compound, how does the inhibition at 0.001 µM read?
Answer: < 50%

Question: For `Cc1cc(F)cc2c(=O)[nH]c(CCC(=O)N3CC=C(c4ccc(F)cc4F)CC3)cc12` [Example 162, 3-(3-(4-(2,4-difluorophenyl)-3,6-dihydropyridin-1(2H)-yl)-3-oxopropyl)-7-fluoro-5-methylisoquinolin-1(2H)-one], which inhibition at 0.001 µM is on record?
Answer: < 50%

Question: How did the inhibition at 0.001 µM turn out when `O=c1[nH]c(CCCN2CC=C(c3ccnc(F)c3)CC2)cc2ncccc12` [Example 237, 7-(3-(2′-fluoro-3,6-dihydro-[4,4′-bipyridine]-1(2H)-yl)propyl)-1,6-naphthyridin-5(6H)-one] was run?
Answer: < 50%

Question: How did the inhibition at 0.001 µM turn out when `O=c1[nH]c(CCCN2CC=C(c3ccncc3)CC2)cc2ncccc12` [Example 240, 7-(3-(3,6-dihydro-[4,4′-bipyridine]-1(2H)-yl)propyl)-1,6-naphthyridin-5(6H)-one] was run?
Answer: < 50%

Question: For `Cc1ccc(F)c2c(=O)[nH]c(CCC(=O)N3CCN(c4ccc(C(=O)O)cc4)CC3)cc12` [Example 147, 4-(4-(3-(8-fluoro-5-methyl-1-oxo-1,2-dihydroisoquinolin-3-yl)propanoyl)piperazin-1-yl)benzoic acid], which inhibition at 0.001 µM is on record?
Answer: < 50%

Question: For `Cc1cc(F)cc2c(=O)[nH]c(CCC(=O)N3CCN(C(=O)C4CCCO4)CC3)cc12` (stereo not shown) [Example 193, 7-fluoro-5-methyl-3-(3-oxo-3-(4-(tetrahydrofuran-2-carbonyl)piperazin-1-yl)propyl)isoquinolin-1(2H)-one], which inhibition at 0.001 µM is on record?
Answer: < 50%

Question: Which inhibition at 0.001 µM does the source give for `N#Cc1ccc(N2CCN(C(=O)CCc3cc4ccc(F)cc4c(=O)[nH]3)CC2)cc1F` [Example 101, 2-fluoro-4-(4-(3-(7-fluoro-1-oxo-1,2-dihydroisoquinolin-3-yl)propanoyl)piperazin-1-yl)benzonitrile] here?
Answer: < 50%

Question: How did the inhibition at 0.001 µM turn out when `Cc1ccc(F)c2c(=O)[nH]c(CCC(=O)N3CCN(c4ccccc4C#N)CC3)cc12` [Example 127, 2-(4-(3-(8-fluoro-5-methyl-1-oxo-1,2-dihydroisoquinolin-3-yl)propanoyl)piperazin-1-yl)benzonitrile] was run?
Answer: < 50%

Question: With `COC(=O)c1cccc(N2CCN(CCCc3cc4ccc(F)cc4c(=O)[nH]3)CC2)c1` [Example 18, methyl 3-(4-(3-(7-fluoro-1-oxo-1,2-dihydroisoquinolin-3-yl)propyl)piperazin-1-yl)benzoate] as the compound, how does the inhibition at 0.001 µM read?
Answer: < 50%

Question: Which inhibition at 0.001 µM does the source give for `Cc1cc(F)cc2c(=O)[nH]c(CCC(=O)N3C4CCC3CN(c3ccc(C#N)cc3)C4)cc12` [Example 213, 4-(8-(3-(7-fluoro-5-methyl-1-oxo-1,2-dihydroisoquinolin-3-yl)propanoyl)-3,8-diazabicyclo[3.2.1]octan-3-yl)benzonitrile] here?
Answer: < 50%

Question: Which inhibition at 0.001 µM does the source give for `Cc1ccc(F)c2c(=O)[nH]c(CCC(=O)N3CC=C(c4cc(C#N)ccc4F)CC3)cc12` [Example 137, 4-fluoro-3-(1-(3-(8-fluoro-5-methyl-1-oxo-1,2-dihydroisoquinolin-3-yl)propanoyl)-1,2,3,6-tetrahydropyridin-4-yl)benzonitrile] here?
Answer: < 50%

Question: How did the inhibition at 0.001 µM turn out when `CC(=O)Nc1cccc(N2CCN(CCCc3cc4ccc(F)cc4c(=O)[nH]3)CC2)c1` [Example 20, N-(3-(4-(3-(7-fluoro-1-oxo-1,2-dihydroisoquinolin-3-yl)propyl)piperazin-1-yl)phenyl)acetamide] was run?
Answer: < 50%

Question: How did the inhibition at 0.001 µM turn out when `O=c1[nH]c(CCCN2CC=C(c3ccc(F)cc3)CC2)cc2ccc(F)cc12` [Example 48, 7-fluoro-3-(3-(4-(4-fluorophenyl)-3,6-dihydropyridin-1(2H)-yl)propyl)isoquinolin-1(2H)-one] was run?
Answer: < 50%

same assay, conditions: PARP-1 enzyme activity

Question: `Cc1ccc(F)c2c(=O)[nH]c(CCCN3CCN(c4ccc(C#N)cc4)CC3)cc12` [Example 23, 4-(4-(3-(8-fluoro-5-methyl-1-oxo-1,2-dihydroisoquinolin-3-yl)propyl)piperazin-1-yl)benzonitrile] was tested. Which IC50 did it give?
Answer: 0.76 nM

Question: How did the IC50 turn out when `O=c1[nH]c(CCCN2CC=C(c3ccc(F)cc3)CC2)cc2ccc(F)cc12` [Example 48, 7-fluoro-3-(3-(4-(4-fluorophenyl)-3,6-dihydropyridin-1(2H)-yl)propyl)isoquinolin-1(2H)-one] was run?
Answer: 1.32 nM
